Reference: US4118424A, “Biodegradable insecticides” (priority 1976, dated 1978)
Values after ≈ are worked out from the molar mass of the structure shown.

Columns and labels:
Culex fatigans adults = test: Insect toxicity, Culex fatigans adults; assay type: in vivo
[1] = test system: Anopheles albimanus larvae; test: Insect toxicity, Anopheles albimanus larvae; assay type: in vivo
Phormia regina = test: Insect toxicity, Phormia regina; assay type: in vivo
[2] = test system: Musca domestica (NAIDM strain); test: Insect toxicity, Musca domestica NAIDM strain; assay type: in vivo; settings: for LD50: Musca domestica, without PB; for Musca domestica NAIDM (w/PB) LD50: with PB
Culex fatigans larvae = test: Insect toxicity, Culex fatigans larvae; assay type: in vivo; settings: Culex quinquefasciatus
[3] = test system: Anopheles albimanus adults; test: Insect toxicity, Anopheles albimanus adults; assay type: in vivo
[4] = test system: Musca domestica Rsp strain; test: Insect toxicity, Musca domestica Rsp strain, DDT-resistant; assay type: in vivo; settings: for LD50: Musca domestica, without PB; for Musca domestica Rsp strain w/PB LD50: with PB
[5] = test system: insects (flies and mosquitoes); test: Insecticidal activity, general statement; assay type: in vivo; settings: versus ethoxychlor
Text: Metabolic studies involving insects, mice, and fish and a model ecosystem (such as described in U.S. Pat. No. 3,787,505) and insecticidal activity studies generally involving flies and mosquitoes have shown that both the symmetrical and the asymmetrical compounds of the present invention are effective. Thus, the new compounds can be represented by the general formula: [drawing 3] where R1 is H or Cl and R2 is CH3 or Cl, X and X^1 are the same or different and each is selected from the group consisting of C1 to C3 alkyl groups and C1 to C4 alkoxy groups.

Culex fatigans = test: Persistence on plywood surfaces of test huts, Culex fatigans; assay type: in vivo; settings: adult mosquitoes
Description: (§1) The persistence of some of the compounds of the present invention was evaluated and compared with that of ethoxychlor. In these tests, the compounds were applied to the plywood surfaces of test huts and the mortalities of adult mosquitoes contained in the huts were measured to determine the number of weeks that 50% mortality continued to occur.

Anopheles albimanus = test: Persistence on plywood surfaces of test huts, Anopheles albimanus; assay type: in vivo; settings: adult mosquitoes
Description: as §1

mice = test: Mouse toxicity, LD50; assay type: in vivo; settings: versus ethoxychlor
Mouse toxicity, LD50 = assay type: in vivo, mice; settings: in vivo
[6] = test system: green sunfish (Lepomis cyanellus); test: Green sunfish toxicity over a period of time; assay type: in vivo; settings: initial concentration 0.1 ppm
Text: The compounds of Example III, V, XI, XIV and XXI were further tested and compared with ethoxychlor to determine fish toxicities over a period of time. In these tests, green sunfish (Lepomis cyanellus) were subject to an initial concentration dosage of 0.1 ppm and the number of days that 100 percent mortalities occurred was observed.

| Structure (SMILES) | Culex fatigans adults-LC50 (Culex fatigans adults) [ug/cm^2] | LC50 [1] [µg/mL] | LD50 (Phormia regina) [mg/kg] | LD50 [2] [mg/kg] | Musca domestica NAIDM (w/PB) LD50 [2] [µg/g] | LC50 (Culex fatigans larvae) [µg/mL] | Anopheles albimanus adults LC50 [3] [ug/cm^2] | LD50 [4] [mg/kg] | Musca domestica Rsp strain w/PB LD50 [4] [µg/g] | insecticidal activity relative to ethoxychlor [5] | Culex fatigans, P50 (number of weeks that at least 50% mortality occurred) (Culex fatigans) [weeks] | Anopheles albimanus, P50 (number of weeks that at least 50% mortality occurred) (Anopheles albimanus) [weeks] | safety to mice relative to ethoxychlor (mice) | LD50 (Mouse toxicity, LD50) [mg/kg] | Number of days 100% mortality [6] [days] |
| --- | --- | --- | --- | --- | --- | --- | --- | --- | --- | --- | --- | --- | --- | --- | --- |
| COc1ccc(C(c2ccc(OC)cc2)C(C)(Cl)Cl)cc1 [XVIII] | > 160 | 0.18 (≈ 0.553 µM) | 13.5 | 65 | 8 | 0.061 (≈ 0.188 µM) | 1.63 | 155 | 9.5 | – | – | – | – | – | – |
| Cc1ccc(C(c2ccc(C)cc2)C(C)Cl)cc1 (stereo not drawn) [Example II] | 9.7 | > 1 | > 250 | > 500 | 24.5 | 0.22 (≈ 0.85 µM) | 6.9 | > 500 | 140 | – | – | – | – | – | – |
| CCOc1ccc(C(c2ccc(OCC)cc2)C(C)Cl)cc1 (stereo not drawn) [V] | 56 | 0.047 (≈ 0.147 µM) | 4.62 | 9.5 | 2 | 0.054 (≈ 0.169 µM) | 7.9 | 18 | 4.9 | at least generally comparable to ethoxychlor | > 70 | > 80 | at least five times safer to mice than is ethoxychlor | ≥ 1000 | 4 |
| CCCOc1ccc(C(c2ccc(OCC)cc2)C(C)C)cc1 (stereo not drawn) [XII] | > 160 | 0.056 (≈ 0.179 µM) | 60 | 21 | 6.5 | 0.39 (≈ 1.25 µM) | 35 | 42 | 22.5 | at least generally comparable to ethoxychlor | – | – | at least five times safer to mice than is ethoxychlor | ≥ 1000 | – |
| CCCOc1ccc(C(c2ccc(OCCC)cc2)C(C)Cl)cc1 (stereo not drawn) [VII] | > 160 | 0.16 (≈ 0.461 µM) | 42.5 | 28 | 10 | 0.12 (≈ 0.346 µM) | > 160 | 85 | 42 | – | – | – | – | – | – |
| CCOc1ccc(C(c2ccc(OCC)cc2)C(Cl)(Cl)Cl)cc1 [ethoxychlor, reference compound] | – | – | – | – | – | – | – | – | – | – | 8 | > 44 | – | – | 21 |
| CCCCOc1ccc(C(c2ccc(C)cc2)C(C)C)cc1 (stereo not drawn) [XVI] | > 160 | 0.19 (≈ 0.641 µM) | > 250 | > 500 | 240 | > 1 | > 160 | > 500 | > 500 | – | – | – | – | – | – |
| CCOc1ccc(C(c2ccc(OC)cc2)C(C)Cl)cc1 (stereo not drawn) [IV] | > 160 | 0.15 (≈ 0.492 µM) | 12 | 47 | 4.7 | 0.15 (≈ 0.492 µM) | 27 | 100 | 4.8 | – | – | – | – | – | – |
| COc1ccc(C(c2ccc(OC)cc2)C(C)(C)Cl)cc1 [XX] | > 160 | > 1 | 75 | > 500 | 12 | > 1 | 16 | > 500 | 26 | – | – | – | – | – | – |
| CCCOc1ccc(C(c2ccc(C)cc2)C(C)C)cc1 (stereo not drawn) [XV] | > 160 | 0.42 (≈ 1.49 µM) | 250 | 175 | 100 | 0.55 (≈ 1.95 µM) | 29 | 370 | 220 | – | – | – | – | – | – |
